From US12404270B2, “Quinazoline derivatives as LPA receptor 2 inhibitors” (CHIESI FARMACEUTICI S.P.A., priority 2019, dated 2025)

Biological target: T1, human recombinant LPA2 expressed in CHO cells (Homo sapiens, UniProt Q9HBW0)
T1 construct: expressed in transfected cells; host or cells: CHO (CHO-hLPA2 cell line)
Assay: FLIPR calcium mobilization assay, LPA2 antagonism in CHO-hLPA2 cells
Type: cell-based
Conditions: CHO-hLPA2 cells, inhibition of LPA EC80 Ca2+ response, 30 min pre-incubation; read-out: LPA2 IC50
Experimental: The effectiveness of compounds of the present invention as LPA2 antagonist can be determined at the human recombinant LPA2 expressed in CHO cells, using a FLIPR assay in 384 well format.
CHO-hLPA2 cell lines are cultured in a humidified incubator at 5% CO2 in DMEM/F-12 (1:1) MIXTURE with 2 mM Glutamax, supplemented with 10% of Foetal Bovine Serum, 1 mM Sodium Pyruvate, 11 mM Hepes and 1× Penicillin/Streptomycin. CHO hLPA2 cells are seeded into black walled clear-bottom 384-well plates (#781091, Greiner Bio-One GmbH) at a density of 7,500 cells per well in 50 μl culture media and grown overnight in a 37° C. humidified CO2-incubator. Serial dilutions (1:3 or 1:4, 11 points CRC) of compounds are performed in 100% DMSO at 200× the final concentration. The compounds are diluted 1:50 prior to the experiment with Assay Buffer (20 mM HEPES, 145 mM NaCl, 5 mM KCl, 5.5 mM glucose, 1 mM MgCl2 and 2 mM CaCl2, pH 7.4 containing 0.01% Pluronic F-127) to obtain a solution corresponding to […] the final concentration in the assay (4×, 2% DMSO). The final concentration of DMSO in the assay will be 0.5% in each well. Medium is removed by aspiration and cells are then incubated with 30 μl of a loading solution containing 5 μM of the cytoplasmic Ca2+ indicator Cal-520 AM in Assay Buffer containing 2.5 mM probenecid for 30 min at 37° C. incubator (cell loading). The loaded cell plates are transferred into the FLIPR instrument and calcium responses are monitored during the on-line addition protocols. For testing of compounds, after the cell loading, 10 μl/well of 4× antagonists' solution was added onto the cells. […] Intracellular peak fluorescence values subtracted by baseline fluorescence are exported and analysed to determine IC50 values, respectively. The calcium response is expressed as percentage of the maximal inhibition of the EC80 agonist response.
The raw data (peak height expressed as relative fluorescence units) are normalized and transformed into “percent of inhibition”. Curve fitting and pIC50 (−Log IC50) estimations are carried out using a four-parameter logistic model using XLfit Software.

T1 sequence (Q9HBW0 whole entry): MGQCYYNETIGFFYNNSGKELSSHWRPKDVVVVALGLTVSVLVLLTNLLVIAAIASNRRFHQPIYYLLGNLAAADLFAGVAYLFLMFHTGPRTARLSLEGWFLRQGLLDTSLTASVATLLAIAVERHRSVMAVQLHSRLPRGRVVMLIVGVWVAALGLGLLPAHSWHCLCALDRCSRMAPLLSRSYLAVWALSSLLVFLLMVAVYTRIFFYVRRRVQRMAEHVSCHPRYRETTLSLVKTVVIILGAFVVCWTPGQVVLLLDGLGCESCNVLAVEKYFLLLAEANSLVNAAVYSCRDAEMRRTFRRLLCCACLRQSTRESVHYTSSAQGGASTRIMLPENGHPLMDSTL

SMILES | IC50 [nM]
Cc1cc(-c2ccc(S(=O)(=O)N3CCN(C[C@H](C)Nc4ncnc5c(C(F)(F)F)cccc45)CC3)o2)on1 [Example 52, N-[(2S)-1-(4-{[5-(3-methyl-1,2-oxazol-5-yl)furan-2-yl]sulfonyl}piperazin-1-yl)propan-2-yl]-8-(trifluoromethyl)quinazolin-4-amine] | 10 to 100
COC(=O)c1cccc2c(N[C@@H](C)CN3CCN(S(=O)(=O)c4ccc(-c5ccno5)s4)CC3)ncnc12 [Example 16, methyl 4-{[(2S)-1-(4-{[5-(1,2-oxazol-5-yl)thiophen-2-yl]sulfonyl}piperazin-1-yl)propan-2-yl]amino}quinazoline-8-carboxylate] | 10 to 100
COC(=O)Nc1nc(C)c(S(=O)(=O)N2CCN(C[C@H](C)Nc3ncnc4c(OC(F)(F)F)cccc34)CC2)s1 [Example 3, Methyl N-[4-methyl-5-({4-[(2S)-2-{[8-(trifluoromethoxy)quinazolin-4-yl]amino}propyl]piperazin-1-yl}sulfonyl)-1,3-thiazol-2-yl]carbamate] | 10 to 100
COC(=O)Nc1nc(C)c(S(=O)(=O)N2CCN(C[C@H](C)Nc3ncnc4c([N+](=O)[O-])cccc34)CC2)s1 [Example 55, methyl N-[4-methyl-5-({4-[(2S)-2-[(8-nitroquinazolin-4-yl)amino]propyl]piperazin-1-yl}sulfonyl)-1,3-thiazol-2-yl]carbamate] | < 1000
C[C@@H](CN1CCN(S(=O)(=O)c2ccc(-c3ccon3)s2)CC1)Nc1ncnc2c(C(F)(F)F)cccc12 [Example 53, N-[(2S)-1-(4-{[5-(1,2-oxazol-3-yl)thiophen-2-yl]sulfonyl}piperazin-1-yl)propan-2-yl]-8-(trifluoromethyl)quinazolin-4-amine] | 10 to 100

More lines, now with the values ahead:

IC50 [nM] | SMILES
10 to 100 | C[C@@H](CN1CCN(S(=O)(=O)c2cc(-c3ccno3)cs2)CC1)Nc1ncnc2c(C(F)(F)F)cccc12 [Example 71, N-[(2S)-1-(4-{[4-(1,2-oxazol-5-yl)thiophen-2-yl]sulfonyl}piperazin-1-yl)propan-2-yl]-8-(trifluoromethyl)quinazolin-4-amine]
10 to 100 | Cc1cc(-c2ncc(S(=O)(=O)N3CCN(C[C@H](C)Nc4ncnc5c(C(F)(F)F)cccc45)CC3)s2)on1 [Example 63, N-[(2S)-1-(4-{[2-(3-methyl-1,2-oxazol-5-yl)-1,3-thiazol-5-yl]sulfonyl}piperazin-1-yl)propan-2-yl]-8-(trifluoromethyl)quinazolin-4-amine]
< 10 | Cc1noc(-c2ccc(S(=O)(=O)N3CCN(C[C@H](C)Nc4ncnc5c(C(=O)N6CCC[C@H]6C(F)(F)F)cccc45)CC3)s2)c1C (racemic) [Example 69, N-[(2S)-1-(4-{[5-(3,4-dimethyl-1,2-oxazol-5-yl)thiophen-2-yl]sulfonyl}piperazin-1-yl)propan-2-yl]-8-[(2S)-2-(trifluoromethyl)pyrrolidine-1-carbonyl]quinazolin-4-amine]
< 10 | Cc1cc(-c2ccc(S(=O)(=O)N3CCN(C[C@H](C)Nc4ncnc5c(N(C)C)cccc45)CC3)s2)on1 [Example 96, N8,N8-dimethyl-N4-[(2S)-1-(4-{[5-(3-methyl-1,2-oxazol-5-yl)thiophen-2-yl]sulfonyl}piperazin-1-yl)propan-2-yl]quinazoline-4,8-diamine]
10 to 100 | COC(=O)Nc1nc(C)c(S(=O)(=O)N2CCN(C[C@H](C)Nc3ncnc4c(Br)cccc34)CC2)s1 [Example 101, methyl N-[5-({4-[(2S)-2-[(8-bromoquinazolin-4-yl)amino]propyl]piperazin-1-yl}sulfonyl)-4-methyl-1,3-thiazol-2-yl]carbamate]
10 to 100 | COC(=O)Nc1nc(C)c(S(=O)(=O)N2CCN(C[C@H](C)Nc3ncnc4c(C(=O)N5CC6CC6C5)cccc34)CC2)s1 (mixture of isomers) [Example 87, methyl N-[5-({4-[(2S)-2-[(8-{3-azabicyclo[3.1.0]hexane-3-carbonyl}quinazolin-4-yl)amino]propyl]piperazin-1-yl}sulfonyl)-4-methyl-1,3-thiazol-2-yl]carbamate]
